Data: US20110245242A1, “Heterocyclically Substituted Anilinopyrimides” (Bayer CropScience AG, priority 2008, published 2011)

Experiments:
Type in all cases: physicochemical
physchem = settings: pH 7.8
Method: The log P values were measured in accordance with EEC Directive 79/831 Annex V.A8 by HPLC (High Performance Liquid Chromatography) on reversed-phase columns (C 18) using the methods below: [c] The LC-MS determination in the neutral range was carried out at pH 7.8 using the mobile phases 0.001 molar aqueous ammonium bicarbonate solution and acetonitrile linear gradient from 10% acetonitrile to 95% acetonitrile.

[1] = log P by HPLC on reversed-phase columns (C 18), method [a], acidic range pH 2.3; settings: pH 2.3
Method: The log P values were measured in accordance with EEC Directive 79/831 Annex V.A8 by HPLC (High Performance Liquid Chromatography) on reversed-phase columns (C 18) using the methods below: [a] The determination was carried out in the acidic range at pH 2.3 using the mobile phases 0.1% aqueous phosphoric acid and acetronitrile linear gradient from 10% acetonitrile to 95% acetronitrile.

[2] = log P by LC-MS, method [b], acid range pH 2.7; settings: pH 2.7
Method: The log P values were measured in accordance with EEC Directive 79/831 Annex V.A8 by HPLC (High Performance Liquid Chromatography) on reversed-phase columns (C 18) using the methods below:
[b] The LC-MS determination in the acid range was carried out at pH 2.7 using the mobile phases 0.1% aqueous formic acid and acetonitrile (contains 0.1% formic acid)
linear gradient from 10% acetonitrile to 95% acetonitrile.

SMILES	log p (physchem)	log p [1]	log p [2]
COCC(C)Nc1nc(Nc2cccc(N3CCCC3=O)c2)ncc1C(F)(F)F (centres unmarked) [Example 6]	2.79[c]	2.4[a];	
O=C1CCCN1c1ccc(Nc2ncc(Cl)c(NCC(F)(F)F)n2)cc1 [Example 9]	2.34[c]	1.96[a];	
O=C1CCCN1c1cccc(Nc2ncc(Cl)c(NCC(F)(F)F)n2)c1 [Example 10]	2.42[c]	2.08[a];	
O=C1OCCN1c1ccc(Nc2ncc(I)c(NC3CC3)n2)cc1 [Example 11]	2.48[c]	1.41[a];	
C=CCNc1nc(Nc2ccc(N3CCCC3=O)cc2)ncc1Cl [Example 13]	2.29[c]	1.38[a];	
C=CCNc1nc(Nc2cccc(N3CCCC3=O)c2)ncc1Cl [Example 14]	2.37[c]	1.45[a];	
CC1CC1Nc1nc(Nc2cccc(N3C(=O)OCC3C)c2)ncc1Cl (centres unmarked) [Example 215]	2.79[c];		1.84[b]
CC1CC1Nc1nc(Nc2cccc(N3C(=O)OC[C@H]3C(C)C)c2)ncc1Cl (some centres unmarked) [Example 216]	3.46[c];		2.43[b]
O=C1CCCN1c1cccc(Nc2ncc(C(F)(F)F)c(NCC(F)(F)C(F)(F)F)n2)c1 [Example 218]	3.07[c];		3.1[b]
CC1CC1Nc1nc(Nc2cccc(N3CCCCC3=O)c2)ncc1Br (centres unmarked) [Example 223]	2.67[c];		1.81[b]
O=C1CCCN1c1cccc(Nc2ncc(Cl)c(N3CCCCC3)n2)c1 [Example 225]	3.53[c];		2.57[b]
O=C1CCCN1c1cccc(Nc2ncc(Cl)c(N3CCOCC3)n2)c1 [Example 226]	2.29[c];		1.98[b]
CC1CC1Nc1nc(Nc2cccc(N3CCOC3=O)c2)ncc1Br (centres unmarked) [Example 227]	2.79[c];		1.77[b]
O=C1CCCN1c1cccc(Nc2ncc(Cl)c(N3CCSCC3)n2)c1 [Example 228]	3.01[c];		2.63[b]
CC1CC1Nc1nc(Nc2cccc(N3CCCC3=O)c2)ncc1Br (centres unmarked) [Example 229]	2.82[c];		1.84[b]
C[C@H]1COC(=O)N1c1cccc(Nc2ncc(Cl)c(N3CCC3)n2)c1 [Example 230]	2.75[c];		1.58[b]
CC1CC1Nc1nc(Nc2cccc(N3C(=O)OCC3C)c2)ncc1Br (centres unmarked) [Example 239]	2.9[c];		1.83[b]
CC1CC(=O)N(c2cccc(Nc3ncc(C(F)(F)F)c(NC4CC4)n3)c2)C1 (centres unmarked) [Example 240]	3.06[c];		2.65[b]
CC1CCN(c2cccc(Nc3ncc(Cl)c(NC4CC4C)n3)c2)C1=O (centres unmarked) [Example 241]	3.17[c];		2.06[b]
CC1CCC(=O)N1c1cccc(Nc2ncc(C(F)(F)F)c(NC3CC3)n2)c1 (centres unmarked) [Example 243]	2.73[c];		2.41[b]
CC1CC(=O)N(c2cccc(Nc3ncc(C(F)(F)F)c(NC4CC4)n3)c2)C1=O (centres unmarked) [Example 244]	2.53[c];		2.29[b]

SMILES	log p (physchem)	log p [1]	log p [2]
CC1CC1Nc1nc(Nc2cccc(N3C(=O)CC(C)(C)C3=O)c2)ncc1Cl (centres unmarked) [Example 246]	2.92[c];		2.09[b]
CC1CC(=O)N(c2cccc(Nc3ncc(C(F)(F)F)c(NC4CCC4)n3)c2)C1=O (centres unmarked) [Example 247]	3.04[c];		2.67[b]
CC(C)C1COC(=O)N1c1cccc(Nc2ncc(Br)c(NC3CCC3)n2)c1 (centres unmarked) [Example 248]	3.71[c];		2.54[b]
CC(C)C1COC(=O)N1c1cccc(Nc2ncc(C(F)(F)F)c(NC3CC3)n2)c1 (centres unmarked) [Example 249]	3.34[c];		3.04[b]
CC(C)C1COC(=O)N1c1cccc(Nc2ncc(Br)c(NC3CC3)n2)c1 (centres unmarked) [Example 250]	3.18[c];		2.22[b]
CC1CCN(c2cccc(Nc3ncc(C(F)(F)F)c(NC4CCC4)n3)c2)C1=O (centres unmarked) [Example 251]	3.67[c];		3.16[b]
CC1(Nc2nc(Nc3cccc(N4CCCC4=O)c3)ncc2C(F)(F)F)CC1 [Example 252]	2.95[c];		2.44[b]
CC1CC(Nc2nc(Nc3cccc(N4C(=O)CCC4C)c3)ncc2Cl)C1 (centres unmarked) [Example 253]	3.16[c];		2.15[b]
CC1CC(Nc2nc(Nc3cccc(N4C(=O)CC(C)(C)C4=O)c3)ncc2Br)C1 (centres unmarked) [Example 257]	3.66[c];		2.58[b]
O=C1CCC(C(F)(F)F)N1c1cccc(Nc2ncc(Br)c(NC3CCC3)n2)c1 (centres unmarked) [Example 258]	3.24[c];		2.3[b]
CC1CC(Nc2nc(Nc3cccc(N4C(=O)CC(C)(C)C4=O)c3)ncc2Cl)C1 (centres unmarked) [Example 259]	3.22[c];		2.43[b]
O=C1CCC(C(F)(F)F)N1c1cccc(Nc2ncc(Cl)c(NC3CC3)n2)c1 (centres unmarked) [Example 260]	2.67[c];		1.89[b]
CC(C)C1COC(=O)N1c1cccc(Nc2ncc(C(F)(F)F)c(NC3CCC3)n2)c1 (centres unmarked) [Example 263]	3.85[c];		3.47[b]
CC1CN(c2cccc(Nc3ncc(Cl)c(NC4CC4)n3)c2)C(=O)O1 (centres unmarked) [Example 264]	2.56[c];		1.65[b]
CC1CC(Nc2nc(Nc3cccc(N4C(=O)CC(C)C4=O)c3)ncc2Br)C1 (centres unmarked) [Example 281]	2.98[c];		2.23[b]
CC1CN(c2cccc(Nc3ncc(Br)c(NC4CCC4)n3)c2)C(=O)O1 (centres unmarked) [Example 287]	3.17[c];		2.04[b]
CC1CC(C)N(c2cccc(Nc3ncc(C(F)(F)F)c(NC4CCC4)n3)c2)C1=O (centres unmarked) [Example 289]	3.74[c];		3.27[b]
CC1CCN(c2cccc(Nc3ncc(C(F)(F)F)c(NC4CC4)n3)c2)C1=O (centres unmarked) [Example 292]	3.05[c];		2.65[b]
CCC1CCC(=O)N1c1cccc(Nc2ncc(Cl)c(NC3CC3)n2)c1 (centres unmarked) [Example 294]	2.74[c];		1.87[b]
CC1CC1Nc1nc(Nc2cccc(N3C(=O)CC(C)(C)C3=O)c2)ncc1Br (centres unmarked) [Example 295]	3.11[c];		2.2[b]
CC(C)Nc1nc(Nc2cccc(N3CCCC3=O)c2)ncc1C(F)(F)F [Example 297]	3[c];		2.35[b]

SMILES	log p (physchem)	log p [1]	log p [2]
CC1CC(Nc2nc(Nc3cccc(N4CCCC4=O)c3)ncc2Cl)C1 (centres unmarked) [Example 299]	3.26[c];		3.25[b]
O=C1CCCN1c1cccc(Nc2ncc(C(F)(F)F)c(N3CCCC3)n2)c1 [Example 301]	3.24[c];		2.45[b]
O=C1CCCN1c1cccc(Nc2ncc(C(F)(F)F)c(NCCF)n2)c1 [Example 302]	2.67[c];		2.05[b]
CC1CC1N(C)c1nc(Nc2cccc(N3CCCC3=O)c2)ncc1Cl (centres unmarked) [Example 304]	3.53[c];		2.66[b]
Cc1ccc(Nc2ncc(Cl)c(NC3CC3)n2)cc1N1CCCC1=O [Example 305]	2.32[c];		1.44[b]
O=C1CCCN1c1cccc(Nc2ncc(C(F)(F)F)c(NCC(F)(F)F)n2)c1 [Example 306]	2.66[c];		2.6[b]
CC1CC1Nc1nc(Nc2ccc(N3CCOC3=O)cc2)ncc1Br (centres unmarked) [Example 308]	2.91[c];		1.97[b]
COC(=O)N(c1cccc(N2CCCC2=O)c1)c1ncc(C(F)(F)F)c(NC2CC2)n1 [Example 309]	2.37[c];		2.25[b]
Cc1cc(Nc2ncc(C(F)(F)F)c(NC3CC3)n2)cc(N2CCCC2=O)c1 [Example 310]	2.98[c];		2.51[b]
O=C1CCCN1c1cccc(Nc2ncc(C(F)(F)F)c(NCC(F)F)n2)c1 [Example 311]	2.52[c];		2.38[b]
CC1CN(c2cccc(Nc3ncc(Cl)c(NC4CCC4)n3)c2)C(=O)O1 (centres unmarked) [Example 312]	3.02[c];		1.91[b]
O=C1CCC(C(F)(F)F)N1c1cccc(Nc2ncc(C(F)(F)F)c(NC3CC3)n2)c1 (centres unmarked) [Example 314]	2.98[c];		2.74[b]
Cc1ccc(Nc2ncc(C(F)(F)F)c(NC3CC3)n2)cc1N1CCCC1=O [Example 316]	2.62[c];		2.16[b]
COc1cc(Nc2ncc(Cl)c(NC3CC3)n2)cc(N2CCCC2=O)c1 [Example 318]	2.46[c];		1.64[b]
COc1ccc(Nc2ncc(C(F)(F)F)c(NC3CC3)n2)cc1N1CCCC1=O [Example 324]	2.51[c];		1.98[b]
CN(c1cccc(N2CCCC2=O)c1)c1ncc(Cl)c(N(C)C2CC2)n1 [Example 325]	3.66[c];		1.98[b]
COc1cc(Nc2ncc(C(F)(F)F)c(NC3CC3)n2)cc(N2CCCC2=O)c1 [Example 326]	2.8[c];		2.47[b]
COC(=O)N(c1cccc(N2CCCC2=O)c1)c1ncc(Cl)c(NC2CC2)n1 [Example 327]	1.99[c];		1.77[b]
CC1CC(Nc2nc(Nc3cccc(N4C(=O)CC(C)C4=O)c3)ncc2Cl)C1 (centres unmarked) [Example 333]	3.09[c];		2.09[b]
